Laboratory results as given in patent US10105414B2, “Peptides derived from RS1 which down-regulate glucose absorption after a glucose rich meal and increase insulin sensitivity” (Julius-Maximilians-Universität Würzburg, priority 2014, dated 2018).
Where a chain is given by its changes, count along the chain named. In names and notes the source's numbering stands. Like-named read-outs stand apart in the source and are kept apart here.

What was measured:
hCNT1 = assay: hCNT1-mediated uridine uptake in Xenopus laevis oocytes after injection of peptides; type: cell-based, human; settings: no AMG injected; for uptake of 5 μM [3H]uridine expressed by hCNT1: low intracellular glucose
Procedure: (§1) Selected oocytes were injected with 50 nl of water containing cRNAs (2.5 ng of hSGLT1 or 0.5 ng of hCNT1). For expression oocytes were incubated for 2-3 days at 16° C. in modified Barth's solution with gentamycin. Noninjected control oocytes were incubated in parallel.
(§2) Before uptake measurements were started, 50 nl of K-Ori buffer containing peptides, polypeptides, 1 pM of calmodulin stimulated kinase 2 (CK2) inhibitor KN93 (Calbiochem San Diego. Calif.), 3 mM of the omithinedecarboxlase inhibitor difluoromethylornithine DFMO and/or or 100 pmol α-methyl-α-D-glucopyranoside (AMG) were injected and the oocytes were incubated for 1 h at room temperature. Uptake was measured in Ori buffer at room temperature. Measurements in transporter expressing oocytes were corrected for measurements in noninjected oocytes. Uptake of 50 μM [^14C]AMG was measured after 15 min incubation and washing in ice-cold Ori buffer containing 1 mM phlorizin. Uptake of 5 μM [^3H]uridine was measured after 15 min incubation and washing in ice-cold Ori buffer. Oocytes were solubilized in 5% (w/v) SDS and analyzed for radioactivity by scintillation counting.
(§3) For comparison of mean values from 2 groups the Student's t-test for unpaired samples was employed.

hCNT3 = assay: hCNT3-mediated uridine uptake in Xenopus laevis oocytes after injection of peptides; type: cell-based, human; settings: low intracellular glucose, no AMG injected
Procedure: FIG. 9. […] Posttransciptional downregulation of hCNT1 and hCNT3 was measured without injection of AMG. […] One hour later uptake of 5 μM [^3H]uridine was measured.
as §2

hSGLT1 [1] = assay: hSGLT1-mediated AMG uptake in Xenopus laevis oocytes 1 h after injection of peptides; type: cell-based, human; settings: for down-regulation of hSGLT1: without injection of AMG (<10 μM); for affinity for down-regulation of hSGLT1 compared with hRS1-Reg wildtype: low intracellular glucose; for effect of intracellular AMG on the affinity for down-regulation of hSGLT1: without versus with injection of AMG
Procedure: as §1, §2, §3

mSGLT1 [2] = settings: 5 mM tripeptide, 30 min, 37° C., 5 mM D-glucose
Procedure: (§4) Standardised t areas of human small intestinal mucosa (FIGS. 13,19) or 1 cm segments of everted mouse small intestine (FIGS. 14,15,20) were washed three times at 37° C. with Krebs-Ringer buffer containing 5 mM D-glucose and incubated for 30 min at 37° C. in Krebs-Ringer buffer containing 5 mM D-glucose plus different concentrations of tripeptides. Thereafter the tissue was washed three times at 0° C. in Krebs-Ringer buffer without glucose and uptake measurements were performed.
(§5) For measurement of SGLT1 mediated glucose uptake, the everted segments of mouse small intestine or defined areas of human mucosa were incubated for 2 min at 37° C. with Krebs-Ringer buffer containing 10 μM [^14C]AMG with or without 0.2 mM phlorizin. Uptake was stopped by transferring the segments into ice cold Krebs-Ringer buffer containing 0.2 mM phlorizin for 5 min. After washing with ice cold Krebs-Ringer buffer the intestinal segments or pieces of human mucosa were dissolved in 0.5 ml Soluence-350) (Perkin Elmer Inc. Waltham Mass., USA). Radioactivity was analysed by liquid scintillation counting. Phlorizin inhibited AMG uptake per cm length or per standard area of the mucosa was calculated.
Thereafter the segments were washed with PBS buffer and phlorizin inhibited uptake of 10 μM [^14C]AMG was measured.

hSGLT1 [3] = settings: cited from earlier work
mSGLT1 [4] = settings: RS1−/− mice starved over night; gavage 20 μmol per mouse; after 2 h
Procedure: as §5
After 2 h the animals were killed, their small intestines were everted and phlorizin inhibited uptake of 10 μM [^14C]AMG Into segments of the everted jejunum was measured (FIG. 12A).

hSGLT1 [5] = settings: 5 mM D-glucose, 30 min
Procedure: Jejunal segments which were routinely dissected during bariatric operations of highly obese patients were stored for 1-3 h on ice in Dulbecco's modified Eagle's medium containing 5 mM D-glucose. The mucosa was isolated and circular areas of the mucosa were dissected using a punching instrument.
as §4, §5
Next, it was investigated which of the QXP-type tripeptides are capable to downregulate hSGLT1 expression in human small intestine in the presence of high glucose. Jejunal samples that were obtained during bariatric surgery of obese patients (males and females with a mean age of 50 years with a mean body mass index of 50) were used. […] A part of the jejumum which is routinely removed during bariatric surgery, was carried to the laboratory using ice-cold culture medium containing 6 mM D-glucose. Part of the mucosa was dissected and identical areas of the mucosa were isolated using a punching instrument. The mucosal pieces were washed with glucose free buffer and incubated for 30 min at 37° C. in tissue culture medium (pH 6.4) containing 5 mM D-glucose and different QXP-type tripeptides. Thereafter the sample were washed two times with PBS buffer (pH 7.4, 37° C.) and incubated for 2 min at 37° C. in PBS (pH 7.4) containing 100 mM sodium and 10 μM [^14C]AMG. The incubation was performed in the absence and presence of 200 μM of the SGLT1 inhibitor phlorizin. Thereafter the samples were washed with ice-cold PBS, the tissue was dissolved, and radioactivity was determined by liquid scintillation counting. The phorizin inhibited AMG uptake was calculated.

mSGLT1 [6] = assay: Phlorizin inhibited AMG uptake into everted small intestine after gavage of mice with mRS1-Reg coupled to hydrogel nanoparticles; type: in vivo, mouse; settings: gavage 1 nmol coupled to nanoparticles, 2 h
Procedure: Inversed miniemulsions were prepared from 2.5 ml hexane containing 50.3 mg Span 80 (Sigma, Taufkirchen, Germany) and 16.7 mg TWEEN 80™ (Sigma) and 0.4 ml 20 mM Hepes pH 7.4 containing 100 mg of thiol-functionalized linear poly(glycidol) polymer (Groll (2009) Journal of Polymer Science 47,5543-5549), 0.5 mg […] (TAT-peptide, Peptides International, Louisville, Ky., USA), and 0.28 mg cysteine-terminated RS1-Reg peptide. In control nanohydrogels the RS1-Reg peptide was omitted. The nanogels were prepared as described (Groll (2009) Journal of Polymer Science 47,5543-5549). Shortly, the organic and aqueous phase were combined, stirred, and a miniemulsion was prepared by ultrasonication at 0° C. For formation of disulphide bridges 60 μL of 0.1 M H2O2 in water were added. The mixture was sonicated for 60 s and incubated for 25 min at room temperature. Oxidation was quenched by acidification and the nanogels were separated by centrifugation. The aqueous layer containing the nanogels was separated and washed four times with a tetrahydrofuran/water (20%/80%)-mixture to remove the surfactants and unreacted polymer. Remaining organic solvents and acid were removed by dialysis against water. The nanohydrogel suspension was stored up to two weeks stored at 4° C.
Male Rs1−/− mice or wildtype mice (Osswald (2005) Mol Cell Biol. 25, 78-87) kept on standard diet were starved over night and gavaged with 200 μl water (adjusted with HCl to pH 5.5) containing 10 mg nanohydrohydrogel that was loaded with 45 μg mRS1-Reg mutant. As a control unloaded nanohydrogel was used. […] The jejunum was cut into 1 cm long segments.
Radioactivity was analysed by liquid scintillation counting.
RS1−/− mice starved overnight were gavaged with 200 μl empty NPs (control) or 200 μl NPs loaded with 1 nmol mRS1-Reg(S19A) or 1 nmol mRS1-Reg(S19E). […] 2 h after gavage with mRS1-Reg mutants coupled to NPs, phlorizin (200 μM) Inhibited uptake of 10 μM AMG labelled containing tracer [^14C]AMG after 2 min incubation at 37° C. (FIG. 21A, C) or uptake of 1 mM AMG labelled with tracer [^14C]AMG after 2 min incubation at 37° C. was measured (FIG. 21B, D). […] Since AMG is rapidly transported by mSGLT1 into the enterocytes the intracellular concentration increases within seconds to values higher than 0.25 mM when the cells were incubated with 1 mM AMG. […] In contrast phlorizin-inhibited uptake of 10 μM AMG or 1 mM AMG was inhibited by 26 and 30% respectively. […] The data further indicate that gavage of a mouse with 1 nmol mRS1-Reg(S19E) is sufficient to downregulate SGLT1 in the presence of low and high intracelluar glucose.

[7] = 5 pM, intracellular AMG ~0.25 mM

Molecule: SDSDRIEP [octapeptide corresponding to a particular motif of human RS1, reference compound]
- uptake of 5 μM [3H]uridine expressed by hCNT1 (hCNT1): decreased
- uptake of 5 μM [3H]uridine expressed by hCNT3 (hCNT3): decreased

Molecule: glutamine-serine-proline [QSP, reference compound]
- uptake of 5 μM [3H]uridine expressed by hCNT1 (hCNT1): not able to inhibit
- inhibition of SGLT1 mediated transport (hSGLT1 [1]; 50 nM tripeptide, no AMG injected): inhibition
- effect on hSGLT1 expression (hSGLT1 [1]; 250 μM intracellular AMG): abolished
- IC50 (hSGLT1 [1]; without injection of AMG (intracellular AMG <10 μM), read-out: IC50 for down-regulation of hSGLT1-mediated AMG uptake): 0.2 nM
- decrease of SGLT1 mediated uptake of 10 μM [14C]AMG (mSGLT1 [2]; wildtype mice): no significant effect
- uptake of 5 μM [3H]uridine expressed by hCNT3 (hCNT3): not able to inhibit
- inhibition of hSGLT1 expression in oocytes (hSGLT1 [3]; 200 nM QSP, intracellular AMG <10 μM): 40-50%
- inhibition of hSGLT1 expression in oocytes after injection of AMG (hSGLT1 [3]; 200 nM QSP, intracellular AMG higher than 250 μM): abolished
- down-regulation of hSGLT1 at raised intracellular AMG (hSGLT1 [3]; intracellular AMG higher than 0.1 mM): blunted
- decrease of phlorizin inhibited uptake of 10 μM [14C]AMG into everted jejunum (mSGLT1 [4]): no significant effect

Molecule: glutamine-serinethiophosphate-proline [QSthiophosphateP]
- down-regulation of hSGLT1 mediated AMG uptake (hSGLT1 [5]; 5 mM): ~30%
- down-regulation of hSGLT1 mediated AMG uptake (hSGLT1 [5]; 15 mM): ~40%
- degree of down-regulation of hSGLT1 (hSGLT1 [1]; [7]): ~75%
- down-regulation of hSGLT1 expression (hSGLT1 [1]; [7]): down-regulated
- down-regulation of hSGLT1 (hSGLT1 [1]; 5 pM): not
- down-regulation of hSGLT1 expression (hSGLT1 [1]; 500 pM, intracellular AMG ~0.25 mM): down-regulated
- down-regulation of hSGLT1 (hSGLT1 [1]; 500 pM): down-regulated
- decrease of SGLT1 mediated uptake of 10 μM [14C]AMG (mSGLT1 [2]; RS1−/− mice): significantly inhibited
- decrease of SGLT1 mediated uptake of 10 μM [14C]AMG (mSGLT1 [2]; wildtype mice): significantly inhibited

B1: mRS1-Reg(S19E): mRS1-Reg, first/N-terminal QSP motive replaced by QEP (SEQ ID No. 10), coupled to hydrogel nanoparticles for gavage (protein)
chain: PSGQEPEVGSPTSLARSVSASVCAIKPGDPNSIESLAMEATKASAEFQTNSKKTDPPPLQVLPDLASSAEQSLAMPFH
modifications: coupled to hydrogel nanoparticles; mRS1-Reg(S19E)
- inhibition of phlorizin-inhibited uptake of 10 μM AMG (mSGLT1 [6]; RS1−/− mice): 26%
- inhibition of phlorizin-inhibited uptake of 1 mM AMG (mSGLT1 [6]; RS1−/− mice): 30%
- decrease of uptake of 1 mM AMG (high intracellular glucose) (mSGLT1 [6]; wild type mice): 40%
- uptake of 10 μM AMG (low intracellular glucose) (mSGLT1 [6]; wild type mice): not altered

B2: hRS1-Reg(S45A): hRS1-Reg with serine 45 replaced by alanine to prevent phosphorylation (protein)
chain: SSGQSPDVGNPMSLARSVSASVCPIKPSDADRIEPKAVKALKASAEFQLNSEKKEHLSLQDLSDHASSADHAPTDQSPAMPMQ
modifications: left off: small tags and cut ends
notes: hRS1-Reg with serine 45 replaced by alanine to prevent phosphorylation
- affinity for down-regulation of hSGLT1 compared with hRS1-Reg wildtype (hSGLT1 [1]; no AMG injected): similar
- effect of intracellular AMG on the affinity for down-regulation of hSGLT1 (hSGLT1 [1]): abolished

B3: hRS1-Reg(S20A): hRS1-Reg mutant preventing phosphorylation at serine in position 20 (protein)
chain: B2 chain with S5A, A30S
modifications: left off: small tags and cut ends
- affinity for down-regulation of hSGLT1 compared with hRS1-Reg wildtype (hSGLT1 [1]; no AMG injected): does not alter the affinity

B4: hRS1-Reg(S45E): hRS1-Reg with serine 45 replaced by glutamate to mimick phosphorylation (protein)
chain: B2 chain with A30E
modifications: left off: small tags and cut ends
notes: hRS1-Reg with serine 45 replaced by glutamate to mimick phosphorylation
- affinity for down-regulation of hCNT1 compared with hRS1-Reg wildtype (hCNT1): similar
- effect of mimicking phosphorylation in position 45 on affinity for down-regulation of hCNT1 (hCNT1): decreases affinity
- affinity for down-regulation of hSGLT1 compared with hRS1-Reg wildtype (hSGLT1 [1]; no AMG injected): increases affinity
- effect of intracellular AMG on the affinity for down-regulation of hSGLT1 (hSGLT1 [1]): abolished

B5: hRS1-Reg(S20E): hRS1-Reg, the first/N-terminal QSP motive is replaced by QEP (SEQ ID No. 9) (protein)
chain: B2 chain with S5E, A30S
modifications: hRS1-Reg(S20E)
- affinity for down-regulation of hSGLT1 higher than hRS1-Reg wildtype (hSGLT1 [1]; high intracellular glucose (AMG ~250 μM)): 15 Mill
- increase of affinity (decrease of IC50) for down-regulation of hSGLT1 at high versus low intracellular AMG (hSGLT1 [1]; intracellular AMG ~250 μM versus low): 300 fold
